Source: patent EP4667483A1, “HUMAN TRANSFERRIN RECEPTOR-BINDING PEPTIDE” (JCR Pharmaceuticals Co., Ltd., priority 2023, dated 2024)
Bridge positions count the residues as written; N and C are the ends. Square brackets hold non-standard residues; d marks the D form. Peptide text beside a SMILES is read from it. * marks the point of attachment. Trp(1-CH2COOH) = N[C@@H](Cc1cn(CC(=O)O)c2ccccc12)C(=O)O; CH2CON(CH2CH2)2NCH2COOH = O=C(O)CN1CCN(C(=O)C*)CC1; NMePhe(4-COOH) = CN[C@@H](Cc1ccc(C(=O)O)cc1)C(=O)O; Nle(6-morpholino) = N[C@@H](CCCCN1CCOCC1)C(=O)O; Phe(3-COOH) = N[C@@H](Cc1cccc(C(=O)O)c1)C(=O)O; NH(CH2CH2O)8Me = COCCOCCOCCOCCOCCOCCOCCOCCN*; NMePhe(3-Cl) = CN[C@@H](Cc1cccc(Cl)c1)C(=O)O; 3Pal(6-NH2) = Nc1ccc(C[C@H](N)C(=O)O)cn1; NMeY = CN[C@@H](Cc1ccc(O)cc1)C(=O)O; Nva(3-Et) = CCC(CC)[C@H](N)C(=O)O; 4Pal = N[C@@H](Cc1ccncc1)C(=O)O; PEG4 = NCCOCCOCCOCCOCCC(=O)O; Carboxymethyl = O=C(O)C*

Legend:
[1] = biological target: T1, human transferrin receptor (hTfR) (Homo sapiens, UniProt P02786); experiment: SPR measurement under pH 6.0 conditions (Biacore T200, NTA chip, immobilized hTfR); assay type: binding; conditions: pH 6.0, single-cycle kinetics; read-out: hTfR SPR pH6.0 KD
[2] = biological target: T1, human transferrin receptor (hTfR); experiment: SPR measurement under pH 7.4 conditions (Biacore T200, CM3 chip, hTfR captured by His Tag antibody); assay type: binding; conditions: pH 7.4, single-cycle kinetics; read-out: hTfR SPR pH7.4 KD

T1 sequence (P02786 whole entry): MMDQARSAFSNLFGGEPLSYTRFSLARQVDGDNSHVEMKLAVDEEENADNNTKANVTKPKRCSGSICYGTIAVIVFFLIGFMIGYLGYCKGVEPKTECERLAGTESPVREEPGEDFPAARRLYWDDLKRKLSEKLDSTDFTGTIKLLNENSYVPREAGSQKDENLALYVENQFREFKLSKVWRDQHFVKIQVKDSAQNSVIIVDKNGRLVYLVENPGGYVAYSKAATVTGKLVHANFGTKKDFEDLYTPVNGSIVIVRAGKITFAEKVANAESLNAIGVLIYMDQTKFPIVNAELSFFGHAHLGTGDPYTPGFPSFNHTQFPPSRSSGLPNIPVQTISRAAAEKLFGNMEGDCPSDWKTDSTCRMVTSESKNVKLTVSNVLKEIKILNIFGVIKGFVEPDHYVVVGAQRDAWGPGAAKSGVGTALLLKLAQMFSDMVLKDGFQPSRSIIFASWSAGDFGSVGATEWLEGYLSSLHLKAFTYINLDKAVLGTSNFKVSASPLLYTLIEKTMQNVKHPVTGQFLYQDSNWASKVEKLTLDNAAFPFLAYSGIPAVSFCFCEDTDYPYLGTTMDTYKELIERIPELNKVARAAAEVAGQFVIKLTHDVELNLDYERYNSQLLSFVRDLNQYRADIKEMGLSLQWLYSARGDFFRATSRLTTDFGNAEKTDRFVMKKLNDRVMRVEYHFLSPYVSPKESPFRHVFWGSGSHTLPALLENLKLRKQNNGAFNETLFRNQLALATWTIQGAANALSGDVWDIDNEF

| Kd [1] [nM] | Kd [2] [nM] | SMILES |
| --- | --- | --- |
| 536 | 111 | CCC(CC)[C@@H]1NC(=O)[C@H](Cc2ccc(OCC(=O)O)cc2)NC(=O)[C@H](Cc2ccc(N)nc2)NC(=O)[C@H](CC(N)=O)NC(=O)[C@H](Cc2cn(CC(=O)O)c3ccccc23)NC(=O)[C@H](C(C)C)NC(=O)[C@H](Cc2cccc(Cl)c2)N(C)C(=O)[C@H](C(C)C)NC(=O)[C@H](C)NC(=O)CSC[C@@H](C(=O)NCCOCCOCCOCCOCCC(N)=O)NC(=O)[C@H](Cc2ccc(O)cc2)N(C)C(=O)[C@H](Cc2ccncc2)NC(=O)[C@H](CCCNC(=N)N)NC(=O)[C@H](CCC(=O)NCCOCCOCCOCCOCCOCCOCCOCCOC)NC(=O)[C@H]([C@@H](C)CC)NC1=O [compound 48] ({CH2CO}-AV[NMePhe(3-Cl)]V[Trp(1-CH2COOH)]N[3Pal(6-NH2)]Y(Carboxymethyl)[Nva(3-Et)]IE(NH(CH2CH2O)8Me)R[4Pal][NMeY]C[PEG4]-NH2; thioether N-15) |
| 576 | 15800 | CCC(CC)[C@@H]1NC(=O)[C@H](Cc2ccc(OCC(=O)O)cc2)NC(=O)[C@H](Cc2ccc(N)nc2)NC(=O)[C@H](CC(N)=O)NC(=O)[C@H](Cc2cn(CC(=O)O)c3ccccc23)NC(=O)[C@H](C(C)C)NC(=O)[C@H](Cc2cccc(Cl)c2)N(C)C(=O)[C@H](C(C)C)NC(=O)[C@H](C)NC(=O)CSC[C@@H](C(=O)NCCOCCOCCOCCOCCC(N)=O)NC(=O)[C@H](Cc2ccc(C(=O)O)cc2)N(C)C(=O)[C@H](Cc2ccncc2)NC(=O)[C@H](CCCCN2CCOCC2)NC(=O)[C@H](CCC(N)=O)NC(=O)[C@H]([C@@H](C)CC)NC1=O [compound 49] ({CH2CO}-AV[NMePhe(3-Cl)]V[Trp(1-CH2COOH)]N[3Pal(6-NH2)]Y(Carboxymethyl)[Nva(3-Et)]IQ[Nle(6-morpholino)][4Pal][NMePhe(4-COOH)]C[PEG4]-NH2; thioether N-15) |
| 1780 | 6500 | CCC(CC)[C@@H]1NC(=O)[C@H](Cc2ccc(OCC(=O)O)cc2)NC(=O)[C@H](Cc2ccc(N)nc2)NC(=O)[C@H](CC(N)=O)NC(=O)[C@H](Cc2cn(CC(=O)O)c3ccccc23)NC(=O)[C@H](C(C)C)NC(=O)[C@H](Cc2cccc(Cl)c2)N(C)C(=O)[C@H](C(C)C)NC(=O)[C@H](C)NC(=O)CSC[C@@H](C(=O)NCCOCCOCCOCCOCCC(N)=O)NC(=O)[C@H](Cc2ccc(C(=O)O)cc2)N(C)C(=O)[C@H](Cc2ccncc2)NC(=O)[C@H](CCCNC(=N)N)NC(=O)[C@H](CCC(=O)NCCOCCOCCOCCOCCOCCOCCOCCOC)NC(=O)[C@H]([C@@H](C)CC)NC1=O [compound 50] ({CH2CO}-AV[NMePhe(3-Cl)]V[Trp(1-CH2COOH)]N[3Pal(6-NH2)]Y(Carboxymethyl)[Nva(3-Et)]IE(NH(CH2CH2O)8Me)R[4Pal][NMePhe(4-COOH)]C[PEG4]-NH2; thioether N-15) |
| 692 | 1560 | CC[C@H](C)[C@@H]1NC(=O)[C@H](Cc2ccc(OCC(=O)N3CCN(CC(=O)O)CC3)cc2)NC(=O)[C@H](Cc2ccc(N)nc2)NC(=O)[C@H](CC(N)=O)NC(=O)[C@H](Cc2cn(CC(=O)O)c3ccccc23)NC(=O)[C@H](C(C)C)NC(=O)[C@H](Cc2cccc(Cl)c2)N(C)C(=O)[C@H](C(C)C)NC(=O)[C@H](C)NC(=O)CSC[C@@H](C(=O)NCCOCCOCCOCCOCCC(N)=O)NC(=O)[C@H](Cc2ccc(C(=O)O)cc2)N(C)C(=O)[C@H](Cc2cccc(C(=O)O)c2)NC(=O)[C@H](CCCCN2CCOCC2)NC(=O)[C@H](CCC(N)=O)NC(=O)[C@H]([C@@H](C)CC)NC1=O [compound 51] ({CH2CO}-AV[NMePhe(3-Cl)]V[Trp(1-CH2COOH)]N[3Pal(6-NH2)]Y(CH2CON(CH2CH2)2NCH2COOH)IIQ[Nle(6-morpholino)][Phe(3-COOH)][NMePhe(4-COOH)]C[PEG4]-NH2; thioether N-15) |
